Results on 13 compounds are retold here after patent US20260209249A1, “NOVEL TRICYCLIC COMPOUND AS KRAS G12D INHIBITOR, AND USE THEREOF” (SK Biopharmaceuticals Co., priority 2022, published 2026).

The target of experiment [1] is T1, GDP-KRAS G12D mutant protein (Homo sapiens, UniProt P01116, G12D).
T1 construct: purchased Daegu Gyeongbuk Medical Innovation Foundation (DGMIF), made to order
The experiment is described as follows: Differential scanning fluorimetry (DSF) binding affinity to GDP-KRAS G12D mutant protein. Conditions: DSF thermal shift, 10 μM compound, 4 μg KRAS protein. The method, then: (§1) Test Example 1: Measurement of Binding Affinity to KRAS G12D Mutant Protein The binding affinities of the compounds according to one embodiment of the present application to the KRAS G12D mutant protein were evaluated using differential scanning fluorimetry (DSF). Differential scanning fluorimetry (DSF) is a method used to study the stability of a protein upon binding to a compound. The experiment can be performed using a real-time PCR (RT-PCR) instrument, and is commonly employed as a screening technique for small-molecule compounds targeting specific proteins. As the temperature increases, folded proteins begin to unfold, during which a hydrophobic dye such as SYPRO Orange binds to the exposed hydrophobic regions of the protein, resulting in a measurable increase in fluorescence intensity (maximum absorption at 470 nm and maximum emission at 570 nm). Protein-compound binding is determined by the difference in the melting temperature (Tm) of the protein in the presence of the compound compared to the Tm in the absence of the compound, expressed as ΔTm. The binding affinity to the KRAS G12D mutant protein was measured using the Protein Thermal Shift Dye kit (#4461146, Applied Biosystems). The GDP-KRAS G12D mutant protein and GppNHp-KRAS G12D mutant protein used in the experiment were recombinant proteins synthesized by the Daegu Gyeongbuk Medical Innovation Foundation (DGMIF) upon request. The analysis of binding between the compound and the KRAS G12D mutant protein was performed according to the following reaction recipe: each test sample contained 4 μg of KRAS protein, 10 μM of the compound, and 2×SYPRO Orange dye. For the GDP-KRAS G12D protein samples, the buffer provided with the Protein Thermal Shift Dye kit was used, while for the GppNHp-KRAS G12D protein samples, 50 mM HEPES (pH 7.5) buffer was used. For the protein-compound binding reaction, the compound was added to the KRAS G12D mutant protein and reacted at room temperature for 30 minutes, followed by the addition of 2×SYPRO Orange dye. The temperature was increased to 25° C.-99° C. (0.05° C./s) using QuantStudiol RT-PCR instrument (Applied Biosystems), and fluorescence was measured using a ROX reporter with filters of 580±10 nm (excitation)/623±14 nm (emission). The measurements obtained at a compound concentration of 10 μM were analyzed using the Protein Thermal Shift Software program (version v1.4, Thermo Fisher Scientific), and the ΔTm (° C.) values, which indicate the binding affinity of the compound to the KRAS G12D mutant protein, were calculated. The DSF measurement results for the compounds according to one embodiment of the present application with respect to the KRAS G12D mutant protein are shown in Table 2.

For experiment [2], the target named is T2, GppNHp-KRAS G12D mutant protein (Homo sapiens, UniProt P01116, G12D).
T2 construct: purchased Daegu Gyeongbuk Medical Innovation Foundation (DGMIF), made to order
The experiment is described as follows: Differential scanning fluorimetry (DSF) binding affinity to GppNHp-KRAS G12D mutant protein. Conditions: DSF thermal shift, 10 μM compound, 4 μg KRAS protein, 50 mM HEPES (pH 7.5). The method, then:
as §1

For `C#Cc1c(F)ccc2cc(O)cc(-c3cc4nc(OCC5(CN6CCC[C@H](F)C6)CC5)nc(N5C[C@H]6CC[C@@H](C5)N6)c4n4ccnc34)c12` [Example 31, 4-(1-((1R,5S)-3,8-diazabicyclo[3.2.1]octan-3-yl)-3-((1-(((S)-3-fluoropiperidin-1-yl)methyl)cyclopropyl)methoxy)imidazo[1′,2′:1,6]pyrido[3,2-d]pyrimidin-6-yl)-5-ethynyl-6-fluoronaphthalen-2-ol], the “GDP-KRAS G12D (ΔTmD, ° C.)” value in experiment [1] amounted to 7.82 °C. Also, the “GppNHp-KRAS G12D (ΔTmD, ° C.)” value in experiment [2] turned out to be 2.22 °C.
For the compound `C#Cc1c(F)ccc2cc(O)cc(-c3cc4nc(OC[C@]56CC(=C)CN5C[C@@H](F)C6)nc(N5C[C@H]6CC[C@@H](C5)N6)c4n4ccnc34)c12` [Example 32, 4-(1-((1R,5S)-3,8-diazabicyclo[3.2.1]octan-3-yl)-3-(((2S,7aR)-2-fluoro-6-methylenetetrahydro-1H-pyrrolizin-7a(5H)-yl)methoxy)imidazo[1′,2′:1,6]pyrido[3,2-d]pyrimidin-6-yl)-5-ethynyl-6-fluoronaphthalen-2-ol], the “GDP-KRAS G12D (ΔTmD, ° C.)” value in experiment [1] was found to be 9.05 °C. For the same compound, the “GppNHp-KRAS G12D (ΔTmD, ° C.)” value in experiment [2] came to 4.04 °C.
Take `C#Cc1c(F)ccc2cc(O)cc(-c3cc4nc(OC[C@]56CCCN5CC(=C)C6)nc(N5C[C@H]6CC[C@@H](C5)N6)c4n4ccnc34)c12` [Example 33, 4-(1-((1R,5S)-3,8-diazabicyclo[3.2.1]octan-3-yl)-3-(((R)-2-methylenetetrahydro-1H-pyrrolizin-7a(5H)-yl)methoxy)imidazo[1′,2′:1,6]pyrido[3,2-d]pyrimidin-6-yl)-5-ethynyl-6-fluoronaphthalen-2-ol]: the “GDP-KRAS G12D (ΔTmD, ° C.)” value in experiment [1] was 7.42 °C. Also, the “GppNHp-KRAS G12D (ΔTmD, ° C.)” value in experiment [2] stood at 3.59 °C.
On to `C#Cc1c(F)ccc2cc(O)cc(-c3cc4nc(OCC5(CN6CCCC6)CC5)nc(N5C[C@H]6CC[C@@H](C5)N6)c4n4ccnc34)c12` [Example 35, 4-(1-((1R,5S)-3,8-diazabicyclo[3.2.1]octan-3-yl)-3-((1-(pyrrolidin-1-ylmethyl)cyclopropyl)methoxy)imidazo[1′,2′:1,6]pyrido[3,2-d]pyrimidin-6-yl)-5-ethynyl-6-fluoronaphthalen-2-ol], for which, in experiment [1], the “GDP-KRAS G12D (ΔTmD, ° C.)” value was 8.91 °C. For the same compound, the “GppNHp-KRAS G12D (ΔTmD, ° C.)” value in experiment [2] is 2.68 °C.
The matching figures for `C#Cc1c(F)ccc2cc(N)cc(-c3cc4nc(OC[C@@]56CCCN5C/C(=C\F)C6)nc(N5C[C@H]6CC[C@@H](C5)N6)c4n4ccnc34)c12` [Example 36, 4-(1-((1R,5S)-3,8-diazabicyclo[3.2.1]octan-3-yl)-3-(((S,Z)-2-(fluoromethylene)tetrahydro-1H-pyrrolizin-7a(5H)-yl)methoxy)imidazo[1′,2′:1,6]pyrido[3,2-d]pyrimidin-6-yl)-5-ethynyl-6-fluoronaphthalen-2-amine]: 7.57 °C and 3.42 °C.
In the same order, the values of `C#Cc1c(F)ccc2cc(O)cc(-c3cc4nc(OCC5(CN6CC[C@@H](F)C6)CCC5)nc(N5C[C@H]6CC[C@@H](C5)N6)c4n4ccnc34)c12` [Example 40, 4-(1-((1R,5S)-3,8-diazabicyclo[3.2.1]octan-3-yl)-3-((1-(((R)-3-fluoropyrrolidin-1-yl)methyl)cyclobutyl)methoxy)imidazo[1′,2′:1,6]pyrido[3,2-d]pyrimidin-6-yl)-5-ethynyl-6-fluoronaphthalen-2-ol] are 5.95 °C and 0.61 °C.
In the same order, the values of `Cc1cc2c(o1)c(-c1cc(N)ccc1C(F)(F)F)c(F)c1nc(OC[C@@]34CCCN3C[C@H](F)C4)nc(N3CC4CCC(C3)N4)c12` [Example 49, 3-(1-((1R,5S)-3,8-diazabicyclo[3.2.1]octan-3-yl)-5-fluoro-3-(((2R,7aS)-2-fluorotetrahydro-1H-pyrrolizin-7a(5H)-yl)methoxy)-8-methylfuro[3,2-n]quinazolin-6-yl)-4-(trifluoromethyl)aniline] are 1.92 °C and 0.73 °C.
Regarding `Cc1cc2c(o1)c(-c1nc(N)ccc1C(F)(F)F)c(F)c1nc(OC[C@@]34CCCN3C[C@H](F)C4)nc(N3C[C@H]4CC[C@@H](C3)N4)c12` [Example 50, 6-(1-((1R,5S)-3,8-diazabicyclo[3.2.1]octan-3-yl)-5-fluoro-3-(((2R,7aS)-2-fluorotetrahydro-1H-pyrrolizin-7a(5H)-yl)methoxy)-8-methylfuro[3,2-f]quinazolin-6-yl)-5-(trifluoromethyl)pyridin-2-amine], in experiment [1], the “GDP-KRAS G12D (ΔTmD, ° C.)” value was determined as 0.58 °C. Also, the “GppNHp-KRAS G12D (ΔTmD, ° C.)” value in experiment [2] was −0.31 °C.
As for `Cc1cc2c(o1)c(-c1c(Cl)c(C)cc3[nH]ncc13)c(F)c1nc(OC[C@@]34CCCN3C[C@H](F)C4)nc(N3C[C@H]4CC[C@@H](C3)N4)c12` [Example 51, 1-((1 R,5S)-3,8-diazabicyclo[3.2.1]octan-3-yl)-6-(5-chloro-6-methyl-1H-indazol-4-yl)-5-fluoro-3-(((2R,7aS)-2-fluorotetrahydro-1H-pyrrolizin-7a(5H)-yl)methoxy)-8-methylfuro[3,2-f]quinazoline], the “GDP-KRAS G12D (ΔTmD, ° C.)” value in experiment [1] is 4.73 °C. Also, in experiment [2], the “GppNHp-KRAS G12D (ΔTmD, ° C.)” value was 1.32 °C.
The matching figures for `Cc1cc2c(o1)c(-c1cccc3sc(N)nc13)c(F)c1nc(OC[C@@]34CCCN3C[C@H](F)C4)nc(N3CC4CCC(C3)N4)c12` [Example 54, 4-(1-((1R,5S)-3,8-diazabicyclo[3.2.1]octan-3-yl)-5-fluoro-3-(((2R,7aS)-2-fluorotetrahydro-1H-pyrrolizin-7a(5H)-yl)methoxy)-8-methylfuro[3,2-n]quinazolin-6-yl)benzo[d]thiazol-2-amine]: 2.95 °C and 1.61 °C.
The matching figures for `Cc1cc2c(o1)c(-c1ccc(F)c3sc(N)nc13)c(F)c1nc(OC[C@@]34CCCN3C[C@H](F)C4)nc(N3C[C@H]4CC[C@@H](C3)N4)c12` [Example 55, 4-(1-((1R,5S)-3,8-diazabicyclo[3.2.1]octan-3-yl)-5-fluoro-3-(((2R,7aS)-2-fluorotetrahydro-1H-pyrrolizin-7a(5H)-yl)methoxy)-8-methylfuro[3,2-n]quinazolin-6-yl)-7-fluorobenzo[d]thiazol-2-amine]: 3.24 °C and 1.91 °C.
As for `C#Cc1c(F)ccc2cc(N)cc(-c3c(F)c4nc(OCC5(CN6CCC7(CC6)CC7(F)F)CC5)nc(N5C[C@H]6CC[C@@H](C5)N6)c4c4cc(C)oc34)c12` [Example 58, 4-(1-((1R,5S)-3,8-diazabicyclo[3.2.1]octan-3-yl)-3-((1-((1,1-difluoro-6-azaspiro[2.5]octan-6-yl)methyl)cyclopropyl)methoxy)-5-fluoro-8-methylfuro[3,2-f]quinazolin-6-yl)-5-ethynyl-6-fluoronaphthalen-2-amine], the “GDP-KRAS G12D (ΔTmD, ° C.)” value in experiment [1] is 6.81 °C. The “GppNHp-KRAS G12D (ΔTmD, ° C.)” value in experiment [2] turned out to be 1.92 °C.
The matching figures for `Cc1cc2c(o1)c(-c1nc(N)cc(C)c1C(F)(F)F)c(F)c1nc(OC[C@@]34CCCN3C[C@H](F)C4)nc(N3C[C@H]4CC[C@@H](C3)N4)c12` [Example 60, 6-(1-((1R,5S)-3,8-diazabicyclo[3.2.1]octan-3-yl)-5-fluoro-3-(((2R,7aS)-2-fluorotetrahydro-1H-pyrrolizin-7a(5H)-yl)methoxy)-8-methylfuro[3,2-n]quinazolin-6-yl)-4-methyl-5-(trifluoromethyl)pyridin-2-amine]: 0.87 °C and 1.61 °C.
